Source: patent US20250270256A1, “NOVEL ANTIMICROBIAL PEPTIDE WITH EXCELLENT MICROBIAL CYTOPLASM ELUTION EFFECT” (CELLICON LAB INC., priority 2021, published 2025)
“Also recorded” adds a separate entry of the source. Like-named read-outs stand apart in the source and are kept apart here. Where no end group is shown, it is not given here.

What was measured:
Escherichia coli [1] = assay type: cell-based; settings: for antimicrobial activity against Escherichia coli (in words): comparison between peptides, FIGS. 1A-4A
Procedure: Specifically, in order to evaluate the antimicrobial activity, the antimicrobial activity against Escherichia coli was measured, and Escherichia coli was treated with antimicrobial peptides, and cell viability was measured and compared.
In order to test the antimicrobial efficacy of antimicrobial peptides, Escherichia coli was cultured in LB medium for about 8 hours, and then the cultured bacteria were dispensed into a 96-well plate. Antimicrobial peptide samples at various concentrations were added into the respective wells, and incubation was performed at 37° C. for 24 hours.
In order to evaluate the antimicrobial activity against Escherichia coli, MIC (minimum inhibitory concentration) and IC50 were additionally measured in addition to the experiments conducted in Examples 1-1 and 1-2.
Specifically, an antimicrobial efficacy experiment was used as the experimental method, and the MIC and IC50 values for the experimental results were calculated by evaluating the minimum inhibitory concentration and the 50% inhibitory concentration with the absorbance and OD value, respectively.

[2] = tested on: Human keratinocytes (HaCaT); settings: 24 hours, comparison between peptides, FIGS. 1B-4B
Procedure: Therefore, cytotoxicity to human keratinocytes was also evaluated by treating human keratinocytes with antimicrobial peptides and measuring cell viability.
Human keratinocytes (HaCaT) were purchased from ATCC (American Type Culture Collection, USA) and cultured in Dulbecco's modified Eagle's medium (DMEM, Gibco, USA) containing 10% fetal bovine serum (FBS, Gibco, USA) and 1% antibiotic-antimycotic (Gibco, USA) at 37° C. in a 5% CO2 incubator.
MTT assay was performed to determine the viability of HaCaT cells against antimicrobial peptides. HaCaT cells were cultured in a 96-well plate at 2×10^5 cells/mL for 24 hours, then treated with samples at various concentrations, and cultured again for 24 hours. The culture medium was removed, and the cells were treated with MTT solution (0.5 mg/mL in PBS). After 4 hours, the MTT solution was removed, DMSO was added to each well, and formazan was dissolved at 37° C. for 30 minutes. Absorbance was measured at 570 nm using a microplate reader (Molecular Devices Spectra MAX, Sunnyvale, CA, USA).

Staphylococcus aureus [3] = assay type: cell-based
Procedure: (§1) In order to evaluate whether the antimicrobial peptides of the present disclosure have antimicrobial activity against bacteria other than Escherichia coli, antimicrobial effects against Escherichia coli, Staphylococcus aureus, Pseudomonas aeruginosa, and Candida albicans, which were strains announced by the Ministry of Food and Drug Safety, were examined.
(§2) Specifically, Escherichia coli, Staphylococcus aureus, and Pseudomonas aeruginosa were cultured using LB medium, and Candida albicans was cultured using YM medium, and then the cultured bacteria were dispensed into a 96-well plate. Antimicrobial peptide samples at various concentrations were added into the respective wells, and incubation was performed at 37° C. for 24 hours.

Pseudomonas aeruginosa [4] = assay type: cell-based
Procedure: as §1, §2

Escherichia coli [5] = assay type: cell-based
Procedure: as §1, §2

Candida albicans [6] = assay type: cell-based
Procedure: as §1, §2

Escherichia coli [7] = experiment: SEM analysis of Escherichia coli treated with peptide; assay type: cell-based; settings: Escherichia coli treated for 30 minutes
Procedure: In order to closely examine the effect of the antimicrobial peptide of the present disclosure on microorganisms, Escherichia coli was treated with the peptide of SEQ ID NO: 6 for 30 minutes, and then the antimicrobial effect was analyzed using a scanning electron microscope (SEM).
Specifically, for SEM analysis, Escherichia coli was cultured using LB medium, then a certain amount of cultured Escherichia coli was taken and treated with the peptide of SEQ ID NO: 6 for 30 minutes, washed with PBS 2 times, and then fixed with a primary fixative of 2% paraformaldehyde in PBS for 2 hours. After fixation, washing with PBS was performed 2 times, dehydration with 30%, 50%, 70%, 80%, 95%, and 100% ethanol was performed for 10 minutes in each step (the last treatment with 100% ethanol was repeated 3 times), and the pellets were lyophilized. After platinum coating using a coater, analysis by SEM was conducted.

Staphylococcus aureus [8] = experiment: Disk diffusion test (Kirby-Bauer): Staphylococcus aureus; assay type: cell-based; settings: 10 μL sample, 37° C. for 16 hours
Procedure: (§3) In order to perform a disk diffusion test for the four kinds of bacteria, the following experiment was conducted.
(§4) After Escherichia coli, Staphylococcus aureus, Pseudomonas aeruginosa, and Candida albicans were cultured in the respective media, a certain amount of the cultured bacteria was spread on unhardened solid media, and then the media were hardened. On the surface of the hardened solid medium, 10 μL of antimicrobial peptide sample was placed, a dry 3M paper disk was put thereon, then incubation was performed at 37° C. for 16 hours, and the size of the zone of inhibition was observed.

Pseudomonas aeruginosa [9] = experiment: Disk diffusion test (Kirby-Bauer): Pseudomonas aeruginosa; assay type: cell-based; settings: 10 μL sample, 37° C. for 16 hours
Procedure: as §3, §4

Candida albicans [10] = experiment: Disk diffusion test (Kirby-Bauer): Candida albicans; assay type: cell-based; settings: 10 μL sample, 37° C. for 16 hours
Procedure: as §3, §4

Escherichia coli [11] = experiment: Disk diffusion test (Kirby-Bauer): Escherichia coli; assay type: cell-based; settings: 10 μL sample, 37° C. for 16 hours
Procedure: as §3, §4

[12] = Staphylococcus aureus, LB medium, 24 hours at 37° C., read-out: IC50
[13] = Pseudomonas aeruginosa, LB medium, 24 hours at 37° C., read-out: IC50
[14] = Escherichia coli, LB medium, 24 hours at 37° C., read-out: IC50
[15] = Candida albicans, YM medium, 24 hours at 37° C., read-out: IC50
[16] = Escherichia coli, 24 hours at 37° C., absorbance 600 nm
[17] = Escherichia coli, 24 hours at 37° C., absorbance 600 nm, read-out: IC50

Row | Compound | antimicrobial activity against Escherichia coli (in words) (Escherichia coli [1]) | toxicity level to human keratinocytes (in words) [2] | IC50 (Staphylococcus aureus [3]; [12]) [µM] | IC50 (Pseudomonas aeruginosa [4]; [13]) [µM] | IC50 (Escherichia coli [5]; [14]) [µM] | IC50 (Candida albicans [6]; [15]) [µM] | IC50 (Escherichia coli [1]; 24 h) [µM] | MIC (Escherichia coli [1]; 24 h) [µM] | IC50 (Staphylococcus aureus [3]; 24 h) [µM] | IC50 (Pseudomonas aeruginosa [4]; 24 h) [µM] | IC50 (Escherichia coli [5]; 24 h) [µM] | IC50 (Candida albicans [6]; 24 h) [µM] | effect on cell membrane observed by SEM (Escherichia coli [7]) | MIC (Escherichia coli [1]; [16]) [µM] | IC50 (Escherichia coli [1]; [17]) [µM] | zone of inhibition (Staphylococcus aureus [8]) | zone of inhibition (Pseudomonas aeruginosa [9]) | zone of inhibition (Candida albicans [10]) | zone of inhibition (Escherichia coli [11])
1 | CC[C@H](C)[C@H](NC(=O)[C@H](CCCCN)NC(=O)[C@H](CCCCN)NC(=O)[C@H](Cc1ccccc1)NC(=O)[C@H](CC(C)C)NC(=O)[C@H](CCCCN)NC(=O)[C@@H](N)CCCCN)C(=O)N[C@@H](CC(C)C)C(=O)N[C@@H](CCCCN)C(=O)N[C@@H](Cc1ccc(O)cc1)C(=O)N[C@@H](CC(C)C)C(=O)N[C@@H](CCCCN)C(=O)O [SEQ ID NO: 1, H2N-[Lys-Lys-Leu-Phe-Lys-Lys-Ile-Leu-Lys-Tyr-Leu-Lys]-CO2H] | remarkably increased compared to that of the known peptide | maintained at a similar level to that of the known peptide | 22 | 12 | 21 | 19 |  |  |  |  |  |  |  |  |  |  |  |  | 
2 | H-KRLFKRILRYLK-OH [SEQ ID NO: 7, H2N-[Lys-Arg-Leu-Phe-Lys-Arg-Ile-Leu-Arg-Tyr-Leu-Lys]-CO2H] |  |  |  |  |  |  | 11 | 62.5 | 13 | 8 | 11 | 10 |  |  |  |  |  |  | 
3 | KRLFRKILKYLR [SEQ ID NO: 6, H2N-[Lys-Arg-Leu-Phe-Arg-Lys-Ile-Leu-Lys-Tyr-Leu-Arg]-CO2H] | most remarkably excellent |  | 10 | 4 | 9 | 6 |  |  |  |  |  |  | entire cell membrane of Escherichia coli is destroyed to form large pores and elution of cell contents of the bacteria is observed | 31.25 | 9 | transparent zones of inhibition with clear borders | transparent zones of inhibition with clear borders | transparent zones of inhibition with clear borders | transparent zones of inhibition with clear borders
4 | RKLFKRILRYLK [SEQ ID NO: 5, H2N-[Arg-Lys-Leu-Phe-Lys-Arg-Ile-Leu-Arg-Tyr-Leu-Lys]-CO2H] |  |  | 15 | 9 | 12 | 11 |  |  |  |  |  |  |  | 62.5 | 12 |  |  |  | 
5 | RKLFRKILKYLR [SEQ ID NO: 8, H2N-[Arg-Lys-Leu-Phe-Arg-Lys-Ile-Leu-Lys-Tyr-Leu-Arg]-CO2H] | most remarkably excellent |  | 10 | 5 | 10 | 8 |  |  |  |  |  |  |  | 31.25 | 10 |  |  |  | 
6 | RRLFRRILRYLR [SEQ ID NO: 2, H2N-[Arg-Arg-Leu-Phe-Arg-Arg-Ile-Leu-Arg-Tyr-Leu-Arg]-CO2H] | remarkably increased compared to that of the peptide of SEQ ID NO: 1; also recorded: remarkably excellent compared to that of the peptides of SEQ ID NO: 3 and SEQ ID NO: 4 | maintained at a level similar to that of SEQ. ID NO: 1 peptide; also recorded: greatly decreased compared to that of the peptides of SEQ ID NO: 3 and SEQ ID NO: 4 | 17 | 10 | 14 | 13 |  |  |  |  |  |  |  | 62.5 | 14 |  |  |  | 
